Test results as given in patent US10526345B2, “Compounds as GPR119 agonists” (Mankind Pharma Ltd., priority 2016, dated 2020).

Target: T1, hGPR119 (Homo sapiens, UniProt Q8TDV5)
T1 construct: expressed in transfected cells; host or cells: CHO
T1 sequence (Q8TDV5 1-335): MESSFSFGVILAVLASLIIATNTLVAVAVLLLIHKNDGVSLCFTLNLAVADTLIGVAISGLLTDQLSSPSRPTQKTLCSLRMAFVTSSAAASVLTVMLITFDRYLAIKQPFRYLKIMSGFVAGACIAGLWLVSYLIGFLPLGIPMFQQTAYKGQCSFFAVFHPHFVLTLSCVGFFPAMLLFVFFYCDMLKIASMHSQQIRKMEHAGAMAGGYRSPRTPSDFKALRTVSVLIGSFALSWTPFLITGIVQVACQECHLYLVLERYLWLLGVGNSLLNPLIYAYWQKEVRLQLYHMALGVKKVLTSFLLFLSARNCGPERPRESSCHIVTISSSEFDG
Test: In vitro cyclic AMP assay (Cisbio dynamic 2 HTRF kit) in CHO-hGPR119 cells
Assay type: cell-based
Details: 1 h, cAMP, compound at 1 μM, 60 min, read-out: Induction (% induction at 1 μM)

Structure (SMILES) | activation at 1 µM
CCCS(=O)(=O)N1CCC(C(C)Oc2nc3ccc(-c4ccc(S(C)(=O)=O)cc4)nc3s2)CC1 (stereo not shown) [Compound 1115, 5-(4-(methylsulfonyl)phenyl)-2-(1-(1-(propylsulfonyl)piperidin-4-yl)ethoxy)thiazolo[5,4-b]pyridine] | 12%
CC(C)c1noc(C2CCN(c3ccc4nc(-c5ccc(S(C)(=O)=O)cc5)sc4n3)CC2)n1 [Compound 1003, 3-isopropyl-5-(1-(2-(4-(methylsulfonyl)phenyl)thiazolo[5,4-b]pyridin-5-yl)piperidin-4-yl)-1,2,4-oxadiazole] | 29%
CCc1noc(N2CCC([C@H](C)Oc3nc4ccc(-c5ccc(S(C)(=O)=O)nc5)nc4s3)CC2)n1 [Compound 1160, 2-((S)-1-(1-(3-ethyl-1,2,4-oxadiazol-5-yl)piperidin-4-yl)ethoxy)-5-(6-(methylsulfonyl)pyridin-3-yl)thiazolo[5,4-b]pyridine] | 76%
C=Cc1ccc(N2CCC(C(C)Oc3nc4ccc(-c5ccc(S(C)(=O)=O)cc5)nc4s3)CC2)nc1 (stereo not shown) [Compound 1088, 5-(4-(methylsulfonyl)phenyl)-2-(1-(1-(5-vinylpyridin-2-yl)piperidin-4-yl)ethoxy)thiazolo[5,4-b]pyridine] | 60%
CC(C)c1noc(N2CCC([C@H](C)Oc3nc4ncc(-c5ccc(S(C)(=O)=O)nc5)nc4s3)CC2)n1 [Compound 1114, (S)-3-isopropyl-5-(4-(1-((6-(6-(methyslulfonyl)pyridin-3-yl)thiazolo[4,5-b]pyrazin-2-yl)oxy)ethyl)piperidin-1-yl)-1,2,4-oxadiazole] | 75%
CCCc1cnc(N2CCC(C(C)Oc3nc4ncc(-c5ccc(S(C)(=O)=O)cc5)nc4s3)CC2)nc1 (stereo not shown) [Compound 1110, 6-(4-(methylsulfonyl)phenyl)-2-(1-(1-(5-propylpyrimidin-2-yl)piperidin-4-yl)ethoxy)thiazolo[4,5-b]pyrazine] | 78%
CS(=O)(=O)c1ccc(-c2nc3ccc(OCC4CCN(Cc5ccccc5)CC4)nc3s2)cc1 [Compound 1009, 5-((1-benzylpiperidin-4-yl)methoxy)-2-(4-(methyslulfonyl)phenyl)thiazolo[5,4-b]pyridine] | 5%
CC(C)c1noc(N2CCC(Oc3nc4ccc(-c5ccc(S(C)(=O)=O)cc5)nc4s3)C(F)C2)n1 (stereo not shown) [Compound 1060, 5-(3-fluoro-4-((5-(4-(methylsulfonyl)phenyl)thiazolo[5,4-b]pyridin-2-yl)oxy)piperidin-1-yl)-3-isopropyl-1,2,4-oxadiazole] | 39%
CC(C)OC(=O)N1CC=C(c2nc3ccc(-c4ccc(S(C)(=O)=O)cc4)nc3s2)CC1 [Compound 1011, isopropyl 4-(5-(4-(methylsulfonyl)phenyl)thiazolo[5,4-b]pyridin-2-yl)-5,6-dihydropyridine-1(2H)-carboxylate] | 19%
COCCNS(=O)(=O)c1ccc(-c2ccc3nc(N4CCC(c5nc(C(C)C)no5)CC4)sc3n2)cc1 [Compound 1073, 4-(2-(4-(3-isopropyl-1,2,4-oxadiazol-5-yl)piperidin-1-yl)thiazolo[5,4-b]pyridin-5-yl)-N-(2-methoxyethyl)benzenesulphonamide] | 29%
COCC[S+]([O-])c1ccc(-c2ccc3nc(OC(C)C4CCN(c5nc(C(C)C)no5)CC4)sc3n2)cc1 (stereo not shown) [Compound 1068, 3-isopropyl-5-(4-(1-((5-(4-((2-methoxyethyl)sulfinyl)phenyl)thiazolo[5,4-b]pyridin-2-yl)oxy)ethyl)piperidin-1-yl)-1,2,4-oxadiazole] | 13%
COCCNS(=O)(=O)c1ccc(-c2ccc3nc(OC(C)C4CCN(c5nc(C(C)C)no5)CC4)sc3n2)cc1 (stereo not shown) [Compound 1066, 4-(2-(1-(1-(3-isopropyl-1,2,4-oxadiazol-5-yl)piperidin-4-yl)ethoxy)thiazolo[5,4-b]pyridin-5-yl)-N-(2-methoxyethyl)benzenesulfonamide] | 30%
Cc1cnc(N2CCC(C(C)Oc3nc4ccc(-c5ccc(S(C)(=O)=O)nc5)nc4s3)CC2)nc1 (stereo not shown) [Compound 1157, 2-(1-(1-(5-methylpyrimidin-2-yl)piperidin-4-yl)ethoxy)-5-(6-(methylsulfonyl)pyridin-3-yl)thiazolo[5,4-b]pyridine] | 81%
CN(C)C(=O)N1CCC(c2nc3ccc(-c4ccc(S(C)(=O)=O)cc4)nc3s2)CC1 [Compound 1028, N,N-dimethyl-4-(5-(4-(methylsulfonyl)phenyl)thiazolo[5,4-b]pyridin-2-yl)piperidine-1-carboxamide] | 2%
COCc1cnc(N2CCC(C(C)Oc3nc4ccc(-c5ccc(S(C)(=O)=O)nc5)nc4s3)CC2)nc1 (stereo not shown) [Compound 1163, 2-(1-(1-(5-(methoxymethyl)pyrimidin-2-yl)piperidin-4-yl)ethoxy)-5-(6-(methylsulfonyl)pyridin-3-yl)thiazolo[5,4-b]pyridine] | 63%
CCc1cnc(N2CCN(c3nc4ccc(Oc5ccc(S(C)(=O)=O)cc5)nc4s3)CC2)nc1 [Compound 1010, 2-(4-(5-ethylpyrimidin-2-yl)piperazin-1-yl)-5-(4-(methylsulfonyl)phenoxy)thiazolo[5,4-b]pyridine] | 8%
CC(C)c1noc(N2CCC(C(Oc3nc4ccc(-c5ccc(S(C)(=O)=O)cc5)nc4s3)C(F)(F)F)CC2)n1 (stereo not shown) [Compound 1094, 3-isopropyl-5-(4-(2,2,2-trifluoro-1-((5-(4-(methysulfonyl)phenyl)thiazolo[5,4-b]pyridin-2-yl)oxy)ethyl)piperidin-1-yl)-1,2,4-oxadiazole] | 24%
CC(C)c1cnc(N2CCC(C(C)Oc3nc4ccc(-c5ccc(S(C)(=O)=O)cc5)nc4s3)CC2)nc1 (stereo not shown) [Compound 1113, 2-(1-(1-(5-isopropylpyrimidin-2-yl)piperidin-4-yl)ethoxy)-5-(4-(methylsulfonyl)phenyl)thiazolo[5,4-b]pyridine] | 57%
CC(C)OC(=O)N1CCC(c2nc3ccc(-c4ccc(S(C)(=O)=O)cc4)nc3s2)CC1 [Compound 1013, isopropyl 4-(5-(4-(methylsulfonyl)phenyl)thiazolo[5,4-b]pyridin-2-yl)piperidine-1-carboxylate] | 11%

Other lines, results leading:

activation at 1 µM | Structure (SMILES)
61% | CC(C)c1noc(N2CCC(C(C)Oc3nc4ccc(-c5cnc(Cl)nc5)nc4s3)CC2)n1 (stereo not shown) [Compound 1116, 5-(4-(1-((5-(2-chloropyrimidin-5-yl)thiazolo[5,4-b]pyridin-2-yl)oxy)ethyl)piperidin-1-yl)-3-isopropyl-1,2,4-oxadiazole]
1% | CC(C)c1noc(N2CCC(C(C)Oc3nc4ccc(-c5ccc(C(=O)N(C)C)cc5F)nc4s3)CC2)n1 (stereo not shown) [Compound 1046, 3-fluoro-4-(2-(1-(1-(3-isopropyl-1,2,4-oxadiazol-5-yl)piperidin-4-yl)ethoxy)thiazolo[5,4-]pyridin-5-yl)-N,N-dimethylbenzamide]
82% | CC(C)c1noc(N2CCC(C(C)Oc3nc4ccc(-c5ccnc(F)c5)nc4s3)CC2)n1 (stereo not shown) [Compound 1081, 5-(4-(1-((5-(2-fluoropyridin-4-yl)thiazolo[5,4-b]pyridin-2-yl)oxy)ethyl)piperidin-1-yl)-3-isopropyl-1,2,4-oxadiazole]
13% | CC(C)c1noc(N2CCC([C@@H](C)Oc3nc4ccc(-c5ccc(S(C)(=O)=O)cc5)nc4s3)CC2)n1 [Compound 1032, (R)-3-isopropyl-5-(4-(1-((5-(4-(methylsulfonyl)phenyl)thiazolo[5,4-b]pyridin-2-yl)oxy)ethyl)piperidin-1-yl)-1,2,4-oxadiazole]
4% | CC(C)c1noc(N2CCC([C@@H](C)Oc3nc4ccc(-c5ccc(S(C)(=O)=O)nc5)nc4s3)C2)n1 (stereo partly drawn) [Compound 1140, 2-((R)-1-(1-(3-isopropyl-1,2,4-oxadiazol-5-yl)pyrrolidin-3-yl)ethoxy)-5-(6-(methylsulfonyl)pyridin-3-yl)thiazolo[5,4-b]pyridine]
50% | Cc1cc(-c2ccc3nc(OC(C)C4CCN(c5nc(C(C)C)no5)CC4)sc3n2)ccn1 (stereo not shown) [Compound 1123, 3-isopropyl-5-(4-(1-((5-(2-methylpyridin-4-yl)thiazolo[5,4-b]pyridin-2-yl)oxy)ethyl)piperidin-1-yl)-1,2,4-oxadiazole]
39% | CC(C)c1noc(N2CCC(C(C)Oc3nc4ccc(-c5ccc(NS(C)(=O)=O)cc5)nc4s3)CC2)n1 (stereo not shown) [Compound 1074, N-(4-(2-(1-(1-(3-isopropyl-1,2,4-oxadiazol-5-yl)piperidin-4-yl)ethoxy)thiazolo[5,4-b]pyridin-5-yl)phenyl)methanesulfonamide]
38% | Cc1nscc1-c1ccc2nc(OC(C)C3CCN(c4nc(C(C)C)no4)CC3)sc2n1 (stereo not shown) [Compound 1125, 3-isopropyl-5-(4-(1-((5-(3-methylisothiazol-4-yl)thiazolo[5,4-b]pyridin-2-yl)oxy)ethyl)piperidin-1-yl)-1,2,4-oxadiazole]
48% | CNS(=O)(=O)c1ccc(-c2ccc3nc(OC(C)C4CCN(c5nc(C(C)C)no5)CC4)sc3n2)cc1 (stereo not shown) [Compound 1061, 4-(2-(1-(1-(3-isopropyl-1,2,4-oxadiazol-5-yl)piperidin-4-yl)ethoxy)thiazolo[5,4-b]pyridin-5-yl)-N-methylbenzenesulfonamide]

Same assay, conditions: cAMP

EC50 | Structure (SMILES)
0.025 to 0.05 µM | CCc1noc(N2CCC([C@H](C)Oc3nc4ccc(-c5ccc(S(C)(=O)=O)nc5)nc4s3)CC2)n1 [Compound 1160, 2-((S)-1-(1-(3-ethyl-1,2,4-oxadiazol-5-yl)piperidin-4-yl)ethoxy)-5-(6-(methylsulfonyl)pyridin-3-yl)thiazolo[5,4-b]pyridine]
0.05 to 0.1 µM | CC(C)c1noc(N2CCC([C@H](C)Oc3nc4ncc(-c5ccc(S(C)(=O)=O)nc5)nc4s3)CC2)n1 [Compound 1114, (S)-3-isopropyl-5-(4-(1-((6-(6-(methyslulfonyl)pyridin-3-yl)thiazolo[4,5-b]pyrazin-2-yl)oxy)ethyl)piperidin-1-yl)-1,2,4-oxadiazole]

Same assay, conditions: cAMP, compound at 1 μM, 60 min

Induction (% induction at 1 μM) | Structure (SMILES)
35% | CC(C)c1noc(N2CCC([C@H](C)Oc3nc4ccc(-c5ccncc5F)nc4s3)CC2)n1 [Compound 1076, (S)-5-(4-(1-((5-(3-fluoropyridin-4-yl)thiazolo[5,4-b]pyridin-2-yl)oxy)ethyl)piperidin-1-yl)-3-isopropyl-1,2,4-oxadiazole]
